These results are taken from patent publication US10953042B2, “Vanadium insulin-mimetics, methods of preparation, and methods for treatment of diabetes” (The University of Trinidad and Tobago, priority 2017, dated 2021).

The conditions of series [1]: free state; cited from earlier work.
In series [2] the test system is STZ induced diabetic mice. How it is done: Streptozotocin (STZ; 2-deoxy-2-(3-methyl-3-nitrosoureido)-D-glucopyranose), a diabetogenic agent having the ability to induce pancreatic β-cell toxicity, is one of the chemicals used worldwide to induce diabetes in a simple and convenient method.
Adult albino mice, Mus musculus, three months old, weighing 30±5 g were procured from Sri Raghavendra Enterprises, Bangalore and acclimatized to laboratory conditions (12:12 hr dark/light, 25±2° C.) for one week. During acclimatization and thereafter, mice were maintained on standard rodent pellet and tap water ad libitum in accordance with ethical guidelines for animal care and experimentation.
Six (6) groups with six mice each were used. […] Group II became the positive control. […] On the fifth day after the first administration, blood was collected by tail pricking and blood glucose levels measured using an ACCU-CHECK® glucometer on a daily basis. Subsequently each group was given its respective second and subsequent doses through intraperitoneal injection.

Series [3] relates to STZ-induced diabetic rats. Particulars: for blood glucose level: 75 mg/kgbw intraperitoneal once every five days.
Procedure: Healthy adult male albino Rattus norvegicus Wistar rats, weighing 170-200 g were procured from Sri Raghavendra Enterprises, Bangalore, Karnataka, India. Studies were conducted in accordance with the guidance for the care and standard experimental animal ethical protocols. Animals were acclimated for a week, maintained at room temperature of 25±2° C. with 12-h dark-light cycle and given tap water and a standard rodent pellet diet ad libitum.
Six (6) groups with six rats each were used. Group I consisted of control animals and diabetes was induced in 12 hour fasted rats in Groups II-VI by a single intraperitoneal 60 mg/kgbw dose of STZ dissolved in freshly prepared 0.1 mol/L citrate buffer (pH 4.5). Blood samples obtained by sequential snipping of the tail and blood glucose levels measured using an ACCU-CHECK® glucometer on a daily basis. […] Group II became the positive control.
The dose-response of the drug was monitored for a period of 30 and 90 days using differential grades of drug at doses of 1, 10, 25, 50, 75, and 100 mg/kgbw administered once every five days. On the fifth day after the first administration, blood was collected and blood glucose levels measured using an ACCU-CHECK® glucometer. Subsequently each group was given its respective second and subsequent doses through intraperitoneal injection.
(§1) The following values were determined spectrophotometrically: (a) daily blood glucose levels (via Accu-check glucometer kit, Roche Diagnostics India); (b) hepatic glycogen (see Seifter et al., (1950) Arch Biochem 25(1):191-200); (c) glycosylated hemoglobin (see Sudhakar and Pattabiraman (1981) Clin Chim Acta 109:267-274); (d) blood urea nitrogen (BUN); (e) serum creatinine (see Hare (1950) Proc Soc Exp Biol Med 74:148-151); and (f) hepatic enzymes (AST, ALT) (see Reitman and Frankel (1957) Am J Clin Pathol 28:56-63).
(§2) Biostatistical analysis was conducted using SPSS 20.0 software. Analysis of variance (one-way ANOVA) was performed with the Tukey HSD post hoc test.
Series [4] concerns STZ-induced diabetic rats. Particulars: for blood glucose levels: 100 mg/kgbw oral once every five days.
Procedure: as §1, §2
The dose-response of the drug was monitored for a period of 30 and 90 days using drug doses of 100 and 200 mg/kgbw administered once every five days. Spectrophotometric measurements and statistical analysis were obtained as in Example 2.

Where two headings read alike, the source gives them in different places.

On to `O=C(O)c1cccc(C(=O)O)n1` [dipicolinic acid, Pyridine-2,6-dicarboxylic acid], for which, in series [1], the toxicity result was “nontoxic”.
In the case of “(Diaqua)(2,6-pyridine diacetyl-carboxylato)oxovanadium(IV) [Complex 1]”, the hyperglycemic condition entry in series [2] (250 mg/kgbw intraperitoneal, 30 days, data not shown) is “reduced the hyperglycemic condition in a steady state for a period of 30 days”. Moreover, the blood glucose level result in series [2] (250 mg/kgbw intraperitoneal, multiple doses once every 5 days) was “stable and sustainable blood glucose level throughout the study”; in series [2] (the other doses (50, 150, 300 mg/kgbw) intraperitoneal), “irregularity in maintaining the reduced levels”; in series [3] (after 30 days), 135 mg/dL; in series [3] (three months (90 days), P<0.05) it was 118.7 mg/dL. The insulin levels result in series [3] (75 mg/kgbw intraperitoneal, compared to the control (FIG. 24)) is recorded as “significantly reducing insulin levels as compared to the control”; in series [4] (oral, compared to the control (FIG. 25)), “significant reduction in insulin levels as compared to the control”. In addition, the glycogen level in series [3] (75 mg/kgbw intraperitoneal, day 30, hepatic glycogen) stood at 2.01 mg/g tissue; in series [3] (75 mg/kgbw intraperitoneal, day 90, hepatic glycogen), 2.00 mg/g tissue. Further, the blood glucose levels in series [4] (day 30) turned out to be 108 mg/dL; in series [4] (day 90) it was 102 mg/dL. Also, the glycogen levels entry in series [4] (oral (FIG. 18)) is listed as “significant effect on increasing the glycogen levels”.
